Measurements taken from patent publication US20070027143A1, “Novel substituted 2,3-benzodiazepine derivatives” (priority 2003, published 2007).
Read-outs that look alike come from different tables or passages of the source.

Columns and labels:
[1] = system: CD1 mice; experiment: Anticonvulsant activity, maximal electroshock seizure (MES) test; assay type: in vivo; settings: Mus musculus
Protocol: (§1) The anti-seizure activity of some of the compounds of the present invention was measured using the electroshock test (J. Pharmacol. Exp. Ther. 106:319 (1952)) and the results are shown in Table 3. The spasmolytic activity of the compounds of the present invention was investigated by using e.g., pentetrazole (J. Pharmacol. Exp. Ther. 108:168 (1953)), strychnine (J. Pharmacol. Exp. Ther. 129:75 (1960)), bemegrid, nicotine, bicuculline, 4-aminopyridine and mercapto-propionic acid for inducing the clonic-tonic seizures and lethality. The investigated compounds were administered orally in three doses using 10 male CD1 mice/dose, usually 60 min before the induction of seizures.

[2] = system: CD1 mice; experiment: Anticonvulsant activity, nicotine induced seizures; assay type: in vivo; settings: Mus musculus; po.
Protocol: as §1

[3] = system: CD1 mice; experiment: Anti-tremor effect, oxotremorine induced tremor; assay type: in vivo; settings: Mus musculus; po., Litchfield-Wilcoxon, limits in brackets; read-out: ED50, tremor induced by Oxotremorin 1 mg/kg ip.
[4] = system: CD1 mice; experiment: Anticonvulsant activity, strychnine induced seizures; assay type: in vivo; settings: Mus musculus, read-out: Strychnine ED50
Protocol: as §1

[5] = system: AMPA/kainate receptors; experiment: Inhibition of AMPA induced whole-cell current in acutely isolated cerebellar Purkinje cells (patch clamp); assay type: cell-based; settings: 5 μM AMPA, read-out: Inhibition of the ion-currents caused by 5 μM AMPA, IC50
Protocol: (§2) In the first model the spreading depression caused by glutamate agonists (i.e., AMPA or kainate) was studied, while in the second one the transmembrane ion-current induced by the activation of the AMPA/kainate receptors was measured directly.
The activity of the compounds of the present invention was studied on acutely isolated cerebellar Purkinje cells by measuring the whole-cell current induced by 5 μM AMPA according for example to the method described by Bleakman et al (Neuropharmacology 12:1689 (1996)).

[6] = system: AMPA receptors; experiment: Inhibition of AMPA induced spreading depression in isolated chicken retina; assay type: cell-based; settings: AMPA (5 μM)
Protocol: as §2
Inhibition of AMPA Induced “Spreading Depression” in Isolated Chicken Retina—
The AMPA antagonistic effect of the compounds of formula (I) or (II) was studied in the in vitro “spreading depression” model (Sheardown Brain Res. 607:189 (1993)). The AMPA antagonists prolong the latency of the development of the “spreading depression” caused by AMPA (5 μM).

[7] = system: CD1 mice; experiment: Anticonvulsant activity, 3-mercapto-propionic acid induced seizures; assay type: in vivo; settings: Mus musculus, read-out: 3-MPA ED50
Protocol: as §1

[8] = system: CD1 mice; experiment: Muscle relaxant activity, inclined screen test; assay type: in vivo; settings: Mus musculus, ip
[9] = system: CD1 mice; experiment: Anticonvulsant activity, pentetrazole induced seizures; assay type: in vivo; settings: Mus musculus, read-out: Pentetrazol ED50
Protocol: as §1

[10] = system: CD1 mice; experiment: Muscle relaxant activity, rotarod test; assay type: in vivo; settings: Mus musculus, ip
[11] = system: CD1 mice; experiment: Anticonvulsant activity, bemegride induced seizures; assay type: in vivo; settings: Mus musculus, read-out: Bemegride ED50
Protocol: as §1

[12] = system: CD1 mice; experiment: Anticonvulsant activity, bicuculline induced seizures; assay type: in vivo; settings: Mus musculus, read-out: Bicuculline ED50
Protocol: as §1

[13] = system: CD1 mice; experiment: Anti-tremor effect, GYKI 20039 induced tremor; assay type: in vivo; settings: Mus musculus; po., Litchfield-Wilcoxon, limits in brackets; read-out: ED50, tremor induced by GYKI 20039 10 mg/kg ip.
[14] = system: CD1 mice; experiment: Anticonvulsant activity, 4-aminopyridine induced seizures; assay type: in vivo; settings: Mus musculus, read-out: 4-AP ED50
Protocol: as §1

[15] = system: Lewis rats; experiment: Autoimmune encephalomyelitis model, neurological (clinical) symptoms; assay type: in vivo; settings: Rattus norvegicus, po, 3.75 mg/kg p.o., female rats, read-out: Neurological symptoms (change compared to controls, %)
[16] = system: Lewis rats; experiment: as above; assay type: in vivo; settings: Rattus norvegicus, read-out: Neurological symptoms (change compared to controls, %); for change in vivo at 7.5 mg/kg: po, 7.5 mg/kg p.o.; for change in vivo at 30 mg/kg: ip, 30 mg/kg ip.
Protocol: The compounds were administered intraperitoneally twice a day for 8 days, starting on day 10 after immunization and with an observation period until symptoms were present. 5-15 animals were used in each group. Their weights were 160-180 g (Lewis rats, female) and 180-220 g (Lewis rats, male). The activity of the compounds was determined according to the symptom score values, and compared to those of the control group (see Table 6). Histopathological investigations were carried out on the brain stem, the spinal cord, and the sciatic nerve (Gijbels et al., J. Clin. Invest. 94:2177 (1994)) using 5-10 animal/group.
Compounds of the invention were further investigated in the autoimmune encephalomyelitis model in rats as outlined in this description before, with the variance that 10 animals were used in each group, of weights 140-160 g (Lewis rats, female).

[17] = system: tumor cell types (colon adenocarcinoma, astrocytoma, breast carcinoma, lung carcinoma and neuroblastoma); settings: Rzeski et al.; cited from earlier work
[18] = system: BN rats; experiment: Bronchial hyperresponsiveness of ovalbumin sensitized, antigen challenged BN rats (tracheal rings, acetylcholine); assay type: in vivo; settings: 3.0 mg/kg po, 2 hours pre-challenge, mean ± SE
Description: (§3) Bronchial hyperresponsiveness (BHR) and airway eosinophilia (AEP) are characteristic features of bronchial asthma. BHR is typified by an exaggerated response to a wide variety of stimuli that can induce an increased resistance to airflow in the airways. AEP is a result of prolonged eosinophil infiltration, mast cell, and T cell activation in the airways. In actively (e.g., ovalbumin) immunized rats (e.g., Brown Norway [BN] strain), repeated sensitization followed by antigenic challenge results in lung eosinophilia and bronchial hyperresponsiveness to different spasmogens (e.g., acetylcholine). This is the most frequently employed model for studying potential anti-asthmatic effects of new chemical entities.
(§4) BN rats were actively immunized with allergen (ovalbumin). On day one, rats were sensitized with the subcutaneous administration of ovalbumin suspended in Al(OH)3 (2.5 μg ovalbumin +20 mg Al(OH)3 in 0.5 ml saline). Booster injections (same dose and same route) were given at day 14 and 21. Simultaneously at each occasion 0.25 ml of Bordatella pentussis vaccine was injected intraperitoneally. On day 28, animals were challenged by inhalation of the antigen (vaporized 1% OVA solution for 1 hour). Test compounds were administered orally 2 hours pre-challenge.
(§5) 48 hours following challenge, they were sacrificed by an overdose of urethane (4-5 ml of 15% urethane given i.p.), bronchoalveolar lavage fluid (BALF) was obtained, and tracheae dissected from the animals. Eosinophil cell count (cells/ml BALF) was determined manually using a selective stain for eosinophils and counting the cells in a Buerker chamber. BHR was determined using tracheal rings suspended in an organ bath. After an equilibration period of 30 minutes, cumulative concentration response curves to acetylcholine were determined. Maximal response of control (unchallenged, non-treated) tracheal rings is obtained at 10^−3 M acetylcholine. The height of this response is defined as 100%. All other contractions are expressed as a percentage and related to the control response.

[19] = system: CD1 mice; experiment: Anti-tremor effect, harmaline induced tremor; assay type: in vivo; settings: po., Litchfield-Wilcoxon, limits in brackets
[20] = system: BN rats; experiment: Airway eosinophilia of ovalbumin sensitized, antigen challenged BN rats (BALF eosinophil count); assay type: in vivo; settings: 3.0 mg/kg po, 2 hours pre-challenge, mean ± SE
Description: as §3, §4, §5

[21] = 0.5 h, po., 30′, read-out: MES 30′ ED50
[22] = 1 h, po., 60 min before induction, read-out: MES (MES 60′) ED50

SMILES	ED50 [1, 21] [mg/kg]	ED50 [1, 22] [mg/kg]	ED50 [2] [mg/kg]	ED50 [3] [mg/kg]	ED50 ([4]; po.) [mg/kg]	IC50 [5] [nM]	IC50 [6] [nM]	ED50 ([7]; po.) [mg/kg]	ED50 [8] [mg/kg]	ED50 ([9]; po.) [mg/kg]	ED50 [10] [mg/kg]	ED50 ([11]; po.) [mg/kg]	ED50 ([12]; po.) [mg/kg]	melting point [°C]	ED50 [13] [mg/kg]	ED50 ([14]; po.) [mg/kg]	change in vivo at 3.75 mg/kg ([15]; 0-8 day) [%]	change in vivo at 3.75 mg/kg ([15]; 0-14 day) [%]	change in vivo at 7.5 mg/kg ([16]; female rats, 0-8 day) [%]	change in vivo at 7.5 mg/kg ([16]; female rats, 0-14 day) [%]	further results
Cc1nnc(N2N=C(c3ccc(N)c(Cl)c3)c3cc4c(cc3C[C@H]2C)OCO4)s1 [Example 182, (R)-5-(4-Amino-3-chlorophenyl)-8-methyl-7-(5-methyl-1,3,4-thiadiazol-2-yl)-8,9-dihydro-7H-1,3-dioxolo-[4,5-h][2,3]benzodiazepine]	5.08	6.17	24.2	2.66	5.9	31	20	7.57	5.84	8.37	2.61	7.94	8.44	98 to 100	3.64	5.44					
CCCc1nnc(N2N=C(c3ccc(N)c(C)c3)c3cc4c(cc3C[C@H]2C)OCO4)s1 [Example 166, (R)-5-(4-Amino-3-methylphenyl)-8-methyl-7-(5-propyl-1,3,4-thiadiazol-2-yl)-8,9-dihydro-7H-1,3-dioxolo[4,5-h][2,3]benzodiazepine]	4.54	4.01	21.8	2.74	7.29	28	201	9.92	3.27	9.18	0.86	7.77	13.3	150 to 154	4.54	6.81	-6	-9	-51	-53	
CCc1nnc(N2N=C(c3ccc(N)c(C)c3)c3cc4c(cc3C[C@H]2C)OCO4)s1 [Example 165, (R)-5-(4-Amino-3-methylphenyl)-7-(5-ethyl-1,3,4-thiadiazol-2-yl)-8-methyl-8,9-dihydro-7H-1,3-dioxolo-[4,5-h][2,3]benzodiazepine]	2.39	3.99	18.6	4.63	10.2	24	113	8.53	2.94	10.1	0.91	10	5.79	129 to 133	5.34	8.6					
CC1=NN=C(c2ccc(N)cc2)c2cc3c(cc2C1)OCO3 [GYKI 52466, 5-(4-aminophenyl)-8-methyl-9H-1,3-dioxolo[4,5-h][2,3]benzodiazepine, reference compound]			71.8	20.5		8800	9500		47.1		25.1				37.1						ED50 ([1]; po, 0.5 h, read-out: MES 30′ ED50): 21.9 mg/kg; ED50 ([1]; po, 1 h, read-out: MES (MES 60′) ED50): 37.4 mg/kg; change in vivo at 30 mg/kg ([16]; female rats, 0-8 day): -45%; change in vivo at 30 mg/kg ([16]; female rats, 0-14 day): -4%; change in vivo at 30 mg/kg ([16]; male rats, 0-8 day): -1%; change in vivo at 30 mg/kg ([16]; male rats, 0-14 day): -1%; ED50 ([4]; po): 86.7 mg/kg; Growth of selected tumor cell types [17]: inhibit growth; ED50 ([7]; po): 47 mg/kg; MAX: relative contraction compared to the control at a maximal Ach concentration [18]: 135 ± 105%; ED50 ([9]; po): 120 mg/kg; ED50, tremor induced by Harmaline 40 mg/kg ip. [19]: 38.5(25.7-57.9) mg/kg po.; ED50 ([11]; po): 71.9 mg/kg; ED50 ([12]; po): 35 mg/kg; BALF eosinophil number [20]: 0.91 ± 0.13 ×10^6/ml; ED50 ([14]; po): 43 mg/kg
COCc1nnc(N2N=C(c3ccc(N)c(C)c3)c3cc4c(cc3C[C@H]2C)OCO4)s1 [Example 168, (R)-5-(4-Amino-3-methylphenyl)-8-methyl-7-(5-methoxymethyl-1,3,4-thiadiazol-2-yl)-8,9-dihydro-7H-1,3-dioxolo-[4,5-h][2,3]benzodiazepine]	2.21	4.49	17.7	3.29	10	11	82	4.62	3.58	6.9	0.8	6.7	10.6	171 to 172	4.11	4.6	-16	-23	-55	-56	
